This note sets out measurements from patent US8618151B2, “Inhibitors of HCV NS5A” (Presidio Pharmaceuticals, Inc., priority 2008, dated 2013).

The structures appear in SMILES notation. pEC50: −log10 of the molar value.

For the assay, the system named is HCV genotype 1b replicon. The assay can be described thus: HCV replicon assay (1b_Huh-Luc/Neo-ET cell line, luciferase readout). It is filed as cell-based. The conditions noted are these: Hepatitis C virus, Huh-7, 72 h, read-out: Inhibition of HCV genotype 1b. A digest of the protocol:
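Luciferase activity (Bright-Glo) after 72 h compound exposure, in triplicate, measured replicon levels in Huh 7-derived 1b_Huh-Luc/Neo-ET cells. EC50 was fitted from percent-of-control values and determined in repeat runs.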
(In antiviral work, replicon cells carry a viral genome segment that copies itself.)
For `COC(=O)N[C@H](C(=O)N1CCC[C@H]1c1ncc(-c2ccc3cc(-c4ccc(-c5cnc([C@@H]6CCCN6C(=O)[C@@H](NC(=O)OC)C6CCOCC6)[nH]5)cc4F)ncc3c2)[nH]1)C(C)C` [compound 151], the pEC50 is over 9.00.
Next, `COC(=O)N[C@H](C(=O)N1CCC[C@H]1c1ncc(-c2ccc3cc(-c4ccc(-c5cnc([C@@H]6CCCN6C(=O)[C@H](NC(=O)OC)c6ccccc6)[nH]5)cc4F)ncc3c2)[nH]1)C(C)C` [compound 152]: over 9.00; `COC(=O)N[C@H](C(=O)N1CCC[C@H]1c1ncc(-c2ccc3cc(-c4ccc(-c5cnc([C@@H]6CCCN6C(=O)[C@H](NC(=O)OC6CCOCC6)c6ccccc6)[nH]5)cc4F)ncc3c2)[nH]1)C(C)C` [compound 153]: over 9.00.
As to `COC(=O)N[C@H](C(=O)N1CCC[C@H]1c1ncc(-c2ccc3cc(-c4ccc(-c5cnc([C@@H]6CCCN6C(=O)[C@H](NC(=O)OC6CCOCC6)c6ccccc6)[nH]5)c(F)c4)ncc3c2)[nH]1)C1CCOCC1` [compound 154], the pEC50 was over 9.00.
Regarding `COC(=O)N[C@H](C(=O)N1CCC[C@H]1c1ncc(-c2ccc3cc(-c4ccc(-c5cnc([C@@H]6CCCN6C(=O)[C@H](NC(=O)OC)c6ccccc6)[nH]5)c(F)c4)ncc3c2)[nH]1)C(C)C` [compound 155], the pEC50 is over 9.00.
Next, `COC(=O)N[C@H](C(=O)N1CCC[C@H]1c1ncc(-c2ccc(-c3cc4ccc(-c5cnc([C@@H]6CCCN6C(=O)[C@H](NC(=O)OC6CCOCC6)c6ccccc6)[nH]5)cc4cn3)cc2F)[nH]1)C(C)C` [compound 156]: over 9.00; `COC(=O)N[C@H](C(=O)N1CCC[C@H]1c1ncc(-c2ccc3cc(-c4ccc5nc([C@@H]6CCCN6C(=O)[C@@H](NC(=O)OC)C(C)C)[nH]c5c4)ccc3c2)[nH]1)C(C)C` [compound 174]: over 9.00.
Turning to `COC(=O)N[C@H](C(=O)N1CCC[C@H]1c1ncc(-c2ccc3cc(-c4ccc5nc([C@@H]6CCCN6C(=O)[C@@H](NC(=O)OC)[C@@H](C)O)[nH]c5c4)ccc3c2)[nH]1)[C@@H](C)O` [compound 175], the pEC50 is over 9.00.
In the case of `COC(=O)N[C@H](C(=O)N1CCC[C@H]1c1ncc(-c2ccc3cc(-c4ccc5nc([C@@H]6CCCN6C(=O)[C@@H](NC(=O)OC)[C@@H](C)OC)[nH]c5c4)ccc3c2)[nH]1)[C@@H](C)OC` [compound 176] it was over 9.00; in that of `COC(=O)N[C@H](C(=O)N1CCC[C@H]1c1ncc(-c2ccc3cc(-c4ccc5nc([C@@H]6CCCN6C(=O)[C@@H](c6ccccc6)N(C)C)[nH]c5c4)ccc3c2)[nH]1)C(C)C` [compound 177], over 9.00.
`COC(=O)N[C@H](C(=O)N1CCC[C@H]1c1nc2ccc(-c3ccc4cc(-c5cnc([C@@H]6CCCN6C(=O)[C@@H](c6ccccc6)N6CCCC6)[nH]5)ccc4c3)cc2[nH]1)C(C)C` [compound 178]: the pEC50 is over 9.00.
Consider `COC(=O)N[C@H](C(=O)N1CCC[C@H]1c1nc2ccc(-c3ccc4cc(-c5cnc([C@@H]6CCCN6C(=O)[C@H](NC(=O)OC)c6ccccc6)[nH]5)ccc4c3)cc2[nH]1)C(C)C` [compound 179], for which the pEC50 was over 9.00.
With `COC(=O)N[C@H](C(=O)N1CCC[C@H]1c1ncc(-c2ccc3cc(-c4ccc5nc([C@@H]6CCCN6C(=O)[C@@H](c6ccccc6)N6CCCC6)[nH]c5c4)ccc3c2)[nH]1)C(C)C` [compound 180], the pEC50 is over 9.00.
In the case of `COC(=O)N[C@H](C(=O)N1CCC[C@H]1c1ncc(-c2ccc3cc(-c4ccc5nc([C@@H]6CCCN6C(=O)[C@H](NC(=O)OC)c6ccccc6)[nH]c5c4)ccc3c2)[nH]1)C(C)C` [compound 181] it was over 9.00; in that of `COC(=O)N[C@H](C(=O)N1CCC[C@H]1c1nc2ccc(-c3ccc4cc(-c5cnc([C@@H]6CCCN6C(=O)[C@@H](c6ccccc6)N(C)C)[nH]5)ccc4c3)cc2[nH]1)C(C)C` [compound 182], over 9.00.
On to `COC(=O)N[C@H](C(=O)N1CCC[C@H]1c1nc2ccc(-c3ccc4cc(-c5cnc([C@@H]6CCCN6C(=O)[C@H](NC(=O)N6CC[C@H](O)C6)c6ccccc6)[nH]5)ccc4c3)cc2[nH]1)C(C)C` [compound 183], for which the pEC50 was over 9.00.
For `COC(=O)N[C@H](C(=O)N1CCC[C@H]1c1ncc(-c2ccc3cc(-c4ccc5nc([C@@H]6CCCN6C(=O)[C@H](NC(=O)N6CC[C@H](O)C6)c6ccccc6)[nH]c5c4)ccc3c2)[nH]1)C(C)C` [compound 185], the pEC50 is over 9.00.
Next, `CNC(=O)N[C@@H](C(=O)N1CCC[C@H]1c1ncc(-c2ccc3cc(-c4ccc5nc([C@@H]6CCCN6C(=O)[C@@H](NC(=O)OC)C(C)C)[nH]c5c4)ccc3c2)[nH]1)c1ccccc1` [compound 186]: over 9.00; `COC(=O)N[C@H](C(=O)N1CCC[C@H]1c1ncc(-c2cnc3cc(-c4ccc5nc([C@@H]6CCCN6C(=O)[C@@H](NC(=O)OC)C(C)C)[nH]c5c4)ccc3c2)[nH]1)C(C)C` [compound 187]: over 9.00; `COC(=O)N[C@H](C(=O)N1CCC[C@H]1c1ncc(-c2cnc3cc(-c4ccc5nc([C@@H]6CCCN6C(=O)[C@H](NC(=O)OC)c6ccccc6)[nH]c5c4)ccc3c2)[nH]1)C(C)C` [compound 188]: 8.00 to 9.00.
Next, `COC(=O)N[C@H](C(=O)N1CCC[C@H]1c1ncc(-c2ccc3cc(-c4ccc5nc([C@@H]6CCCN6C(=O)[C@@H](NC(=O)OC)C6CCOCC6)[nH]c5c4)ccc3c2)[nH]1)C(C)C` [compound 189]: over 9.00; `COC(=O)N[C@H](C(=O)N1CCC[C@H]1c1nc2ccc(-c3ccc4cc(-c5cnc([C@@H]6CCCN6C(=O)[C@@H](NC(=O)OC)C6CCOCC6)[nH]5)ccc4c3)cc2[nH]1)C(C)C` [compound 190]: over 9.00; `COC(=O)N[C@H](C(=O)N1CCC[C@H]1c1nc2ccc(-c3ccc4cc(-c5cnc([C@@H]6CCCN6C(=O)[C@@H](NC(=O)OC)C6CCOCC6)[nH]5)cnc4c3)cc2[nH]1)C(C)C` [compound 191]: over 9.00.
With `COC(=O)N[C@H](C(=O)N1CCC[C@H]1c1ncc(-c2cnc3cc(-c4ccc5nc([C@@H]6CCCN6C(=O)[C@@H](NC(=O)OC)C6CCOCC6)[nH]c5c4)ccc3c2)[nH]1)C(C)C` [compound 192], the pEC50 was over 9.00.
In the case of `COC(=O)N[C@H](C(=O)N1CCC[C@H]1c1ncc(-c2ccc3nc(-c4ccc5nc([C@@H]6CCCN6C(=O)[C@@H](NC(=O)OC)C(C)C)[nH]c5c4)ccc3c2)[nH]1)C(C)C` [compound 193] it was over 9.00; in that of `COC(=O)N[C@H](C(=O)N1CCC[C@H]1c1nc2ccc(-c3ccc4cc(-c5cnc([C@@H]6CCCN6C(=O)[C@@H](NC(=O)OC)C6CCOCC6)[nH]5)ccc4n3)cc2[nH]1)C(C)C` [compound 194], over 9.00.
In the case of `COC(=O)N[C@H](C(=O)N1CCC[C@H]1c1nc2ccc(-c3ccc4cc(-c5cnc([C@@H]6CCCN6C(=O)[C@H](NC(=O)OC)c6ccccc6)[nH]5)cnc4c3)cc2[nH]1)C(C)C` [compound 195] it was over 9.00; in that of `COC(=O)N[C@H](C(=O)N1CCC[C@H]1c1nc2ccc(-c3ccc4cc(-c5cnc([C@@H]6CCCN6C(=O)[C@H](NC(=O)OC)c6ccccc6)[nH]5)ccc4n3)cc2[nH]1)C(C)C` [compound 196], over 9.00; in that of `COC(=O)N[C@H](C(=O)N1CCC[C@H]1c1ncc(-c2ccc3nc(-c4ccc5nc([C@@H]6CCCN6C(=O)[C@H](NC(=O)OC)c6ccccc6)[nH]c5c4)ccc3c2)[nH]1)C(C)C` [compound 197], over 9.00.
